Test results from ChEMBL document CHEMBL5244223, “l,8-Naphthalimide based DNA intercalators and anticancer agents. A systematic review from 2007 to 2017” (Eur J Med Chem, 2018).
≈ marks a conversion by molar mass, not a printed value.

Experiments:
Calf thymus DNA = experiment: Binding affinity to calf thymus DNA assessed as DNA intercalation by measuring change in melting temperature by thermal denaturation assay; assay type: nucleic-acid assay; conditions: Bos taurus
Staphylococcus aureus = experiment: Antibacterial activity against Staphylococcus aureus MTCC 96 assessed as inhibition of bacterial growth by agar well diffusion assay; assay type: functional
[1] = tested on: Staphylococcus epidermidis; experiment: Antibacterial activity against Staphylococcus epidermidis MTCC 435 assessed as inhibition of bacterial growth by agar well diffusion assay; assay type: functional
Escherichia coli = experiment: Antibacterial activity against Escherichia coli MTCC 443 assessed as inhibition of bacterial growth by agar well diffusion assay; assay type: functional
Pseudomonas aeruginosa = experiment: Antibacterial activity against Pseudomonas aeruginosa MTCC 741 assessed as inhibition of bacterial growth by agar well diffusion assay; assay type: functional
HeLa [2] = experiment: Cytotoxicity against human HeLa cells assessed as inhibition of cell growth incubated for 48 hrs by MTT assay; assay type: functional, cell-based
A549 = experiment: Cytotoxicity against human A549 cells assessed as inhibition of cell growth incubated for 48 hrs by MTT assay; assay type: functional, cell-based; conditions: A549, 48 h
K562 = experiment: Cytotoxicity against human K562 cells assessed as inhibition of cell growth incubated for 48 hrs by MTT assay; assay type: functional, cell-based; conditions: K562, 48 h
L1210 = experiment: Antiproliferative activity against mouse L1210 cells assessed as inhibition of cell proliferation incubated for 48 hrs by coulter counter assay; assay type: functional, cell-based; conditions: L1210, 48 h
CCRF-CEM = experiment: Antiproliferative activity against human CEM cells assessed as inhibition of cell proliferation incubated for 48 hrs by coulter counter assay; assay type: functional, cell-based
HeLa [3] = experiment: Antiproliferative activity against human HeLa cells assessed as inhibition of cell proliferation incubated for 48 hrs by coulter counter assay; assay type: functional, cell-based
[4] = Antiproliferative activity against human HMEC-1 cells assessed as inhibition of cell proliferation incubated for 48 hrs by coulter counter assay; assay type: toxicity, cell-based

Row | SMILES | IC50 (L1210) | IC50 (CCRF-CEM) | IC50 (HeLa [3]) | IC50 at 48 h [4] | other results
1 | O=C1c2ccc3c4c(ccc(c24)C(=O)N1c1nc(-c2cc4cc(Cl)cc(Cl)c4oc2=O)cs1)C(=O)N(c1nc(-c2cc4cc(Cl)cc(Cl)c4oc2=O)cs1)C3=O | – | – | – | – | ΔTm (Calf thymus DNA): 0.1 °C; MIC (Staphylococcus aureus): 18.8 mg/L (≈ 21.8 µM); MIC [1]: 18.8 mg/L (≈ 21.8 µM); MIC (Escherichia coli): 18.8 mg/L (≈ 21.8 µM); MIC (Pseudomonas aeruginosa): 18.8 mg/L (≈ 21.8 µM)
2 | CN(C)CCN1C(=O)c2cccc3cc(NC(=O)CCNC(=O)C(Cl)Cl)cc(c23)C1=O | – | – | – | – | IC50 (HeLa [2]): 21.5 µM; IC50 (A549): 4.7 µM; IC50 (K562): 8.5 µM
3 | O=C1c2cccc3cccc(c23)C(=O)N1c1nc(-c2cc3ccccc3oc2=O)cs1 | – | – | – | – | ΔTm (Calf thymus DNA): 0.1 °C; MIC (Staphylococcus aureus): 18.8 mg/L (≈ 44.2 µM); MIC [1]: 18.8 mg/L (≈ 44.2 µM); MIC (Escherichia coli): 18.8 mg/L (≈ 44.2 µM); MIC (Pseudomonas aeruginosa): 18.8 mg/L (≈ 44.2 µM)
4 | O=C1c2cccc3cccc(c23)C(=O)N1c1nc(-c2cc3cc(Br)ccc3oc2=O)cs1 | – | – | – | – | ΔTm (Calf thymus DNA): 0.1 °C; MIC (Staphylococcus aureus): 18.8 mg/L (≈ 37.3 µM); MIC [1]: 18.8 mg/L (≈ 37.3 µM); MIC (Escherichia coli): 18.8 mg/L (≈ 37.3 µM); MIC (Pseudomonas aeruginosa): 18.8 mg/L (≈ 37.3 µM)
5 | CN(C)CCN1C(=O)c2cccc3cc(NC(=O)CCCNC(=O)C(Cl)Cl)cc(c23)C1=O | – | – | – | – | IC50 (HeLa [2]): 21.5 µM; IC50 (A549): 4.7 µM; IC50 (K562): 8.5 µM
6 | CN(C)CCN1C(=O)c2cccc3cc(NC(=O)CNC(=O)C(Cl)Cl)cc(c23)C1=O | – | – | – | – | IC50 (HeLa [2]): 21.5 µM; IC50 (A549): 4.7 µM; IC50 (K562): 8.5 µM
7 | O=C1c2ccc3c4c(ccc(c24)C(=O)N1c1nc(-c2cc4cc(Br)cc(Br)c4oc2=O)cs1)C(=O)N(c1nc(-c2cc4cc(Br)cc(Br)c4oc2=O)cs1)C3=O | – | – | – | – | ΔTm (Calf thymus DNA): 0.1 °C; MIC (Staphylococcus aureus): 18.8 mg/L (≈ 18.1 µM); MIC [1]: 18.8 mg/L (≈ 18.1 µM); MIC (Escherichia coli): 18.8 mg/L (≈ 18.1 µM); MIC (Pseudomonas aeruginosa): 18.8 mg/L (≈ 18.1 µM)
8 | CCOP(=O)(CCn1cc(CN2C(=O)c3cccc4cc([N+](=O)[O-])cc(c34)C2=O)nn1)OCC | > 250 µM | > 250 µM | > 250 µM | > 250 µM | –
9 | CCOP(=O)(CCCn1cc(CN2C(=O)c3cccc4cc([N+](=O)[O-])cc(c34)C2=O)nn1)OCC | > 250 µM | > 250 µM | > 250 µM | > 250 µM | –
10 | CN(C)CCN1C(=O)c2cccc3cc(NC(=O)CN)cc(c23)C1=O | – | – | – | – | IC50 (HeLa [2]): 21.5 µM; IC50 (A549): 4.7 µM; IC50 (K562): 8.5 µM
11 | O=C1c2cccc3cccc(c23)C(=O)N1c1nc(-c2cc3cc(Br)cc(Br)c3oc2=O)cs1 | – | – | – | – | ΔTm (Calf thymus DNA): 0.1 °C; MIC (Staphylococcus aureus): 18.8 mg/L (≈ 32.2 µM); MIC [1]: 18.8 mg/L (≈ 32.2 µM); MIC (Escherichia coli): 18.8 mg/L (≈ 32.2 µM); MIC (Pseudomonas aeruginosa): 18.8 mg/L (≈ 32.2 µM)
12 | CN(C)CCN1C(=O)c2cccc3cc(NC(=O)CCCCCNC(=O)C(Cl)Cl)cc(c23)C1=O | – | – | – | – | IC50 (HeLa [2]): 21.5 µM; IC50 (A549): 4.7 µM; IC50 (K562): 8.5 µM
13 | CCOP(=O)(CCOCCn1cc(CN2C(=O)c3cccc4cc([N+](=O)[O-])cc(c34)C2=O)nn1)OCC | > 250 µM | > 250 µM | > 250 µM | > 250 µM | –
14 | CCOP(=O)(CCOCCn1cc(CN2C(=O)c3cccc4cccc(c34)C2=O)nn1)OCC | > 250 µM | > 250 µM | > 250 µM | > 250 µM | –
15 | CN(C)CCN1C(=O)c2cccc3cc(NC(=O)CCN)cc(c23)C1=O | – | – | – | – | IC50 (HeLa [2]): 21.5 µM; IC50 (A549): 4.7 µM; IC50 (K562): 8.5 µM
16 | CCOP(=O)(CC(O)Cn1cc(CN2C(=O)c3cccc4cccc(c34)C2=O)nn1)OCC (stereo not drawn) | > 250 µM | > 250 µM | > 250 µM | > 250 µM | –
17 | CCOP(=O)(Cn1cc(CN2C(=O)c3cccc4cc([N+](=O)[O-])cc(c34)C2=O)nn1)OCC | > 250 µM | > 250 µM | > 250 µM | > 250 µM | –
18 | O=C1c2ccc3c4c(ccc(c24)C(=O)N1c1nc(-c2cc4cc(Cl)ccc4oc2=O)cs1)C(=O)N(c1nc(-c2cc4cc(Cl)ccc4oc2=O)cs1)C3=O | – | – | – | – | ΔTm (Calf thymus DNA): 24.3 °C; MIC (Staphylococcus aureus): 18.8 mg/L (≈ 23.7 µM); MIC [1]: 18.8 mg/L (≈ 23.7 µM); MIC (Escherichia coli): 18.8 mg/L (≈ 23.7 µM); MIC (Pseudomonas aeruginosa): 18.8 mg/L (≈ 23.7 µM)
19 | CCOP(=O)(CC(O)Cn1cc(CN2C(=O)c3cccc4c(Br)ccc(c34)C2=O)nn1)OCC (stereo not drawn) | > 250 µM | > 250 µM | > 250 µM | > 250 µM | –

Row | SMILES | IC50 (L1210) | IC50 (CCRF-CEM) | IC50 (HeLa [3]) | IC50 at 48 h [4] | other results
20 | O=C(O)c1cn(C2CC2)c2cc(N3CCNCC3)c(F)cc2c1=O [CIPROFLOXACIN] | – | – | – | – | MIC (Staphylococcus aureus): 18.8 mg/L (≈ 56.6 µM); MIC [1]: 18.8 mg/L (≈ 56.6 µM); MIC (Escherichia coli): 18.8 mg/L (≈ 56.6 µM); MIC (Pseudomonas aeruginosa): 18.8 mg/L (≈ 56.6 µM)
21 | CCOP(=O)(CCOCCn1cc(CN2C(=O)c3cccc4c(Br)ccc(c34)C2=O)nn1)OCC | > 250 µM | > 250 µM | > 250 µM | > 250 µM | –
22 | COc1cccc2cc(-c3csc(N4C(=O)c5cccc6cccc(c56)C4=O)n3)c(=O)oc12 | – | – | – | – | ΔTm (Calf thymus DNA): 0.1 °C; MIC (Staphylococcus aureus): 18.8 mg/L (≈ 41.3 µM); MIC [1]: 18.8 mg/L (≈ 41.3 µM); MIC (Escherichia coli): 18.8 mg/L (≈ 41.3 µM); MIC (Pseudomonas aeruginosa): 18.8 mg/L (≈ 41.3 µM)
23 | CCOP(=O)(CCOCn1cc(CN2C(=O)c3cccc4cc([N+](=O)[O-])cc(c34)C2=O)nn1)OCC | > 250 µM | > 250 µM | > 250 µM | > 250 µM | –
24 | O=C1c2ccc3c4c(ccc(c24)C(=O)N1c1nc(-c2cc4cc(Br)ccc4oc2=O)cs1)C(=O)N(c1nc(-c2cc4cc(Br)ccc4oc2=O)cs1)C3=O | – | – | – | – | ΔTm (Calf thymus DNA): 0.1 °C; MIC (Staphylococcus aureus): 18.8 mg/L (≈ 21.3 µM); MIC [1]: 18.8 mg/L (≈ 21.3 µM); MIC (Escherichia coli): 18.8 mg/L (≈ 21.3 µM); MIC (Pseudomonas aeruginosa): 18.8 mg/L (≈ 21.3 µM)
25 | CCOP(=O)(CCCCn1cc(CN2C(=O)c3cccc4cccc(c34)C2=O)nn1)OCC | > 250 µM | > 250 µM | > 250 µM | > 250 µM | –
26 | CCOP(=O)(Cn1cc(CN2C(=O)c3cccc4cccc(c34)C2=O)nn1)OCC | > 250 µM | > 250 µM | > 250 µM | > 250 µM | –
27 | CN(C)CCN1C(=O)c2cccc3cc(NC(=O)CCCCCN)cc(c23)C1=O | – | – | – | – | IC50 (HeLa [2]): 21.5 µM; IC50 (A549): 4.7 µM; IC50 (K562): 8.5 µM
28 | CCOP(=O)(CCCn1cc(CN2C(=O)c3cccc4cccc(c34)C2=O)nn1)OCC | > 250 µM | > 250 µM | > 250 µM | > 250 µM | –
29 | CCOP(=O)(CC(=O)NCn1cc(CN2C(=O)c3cccc4cc([N+](=O)[O-])cc(c34)C2=O)nn1)OCC | > 250 µM | > 250 µM | > 250 µM | > 250 µM | –
30 | CN(C)CCN1C(=O)c2cccc3cc(NC(=O)CCCN)cc(c23)C1=O | – | – | – | – | IC50 (HeLa [2]): 21.5 µM; IC50 (A549): 4.7 µM; IC50 (K562): 8.5 µM
31 | CCOP(=O)(CC(O)Cn1cc(CN2C(=O)c3cccc4cc([N+](=O)[O-])cc(c34)C2=O)nn1)OCC (stereo not drawn) | > 250 µM | > 250 µM | > 250 µM | > 250 µM | –
32 | CCOP(=O)(CCOCn1cc(CN2C(=O)c3cccc4cccc(c34)C2=O)nn1)OCC | > 250 µM | > 250 µM | > 250 µM | > 250 µM | –
33 | CCOP(=O)(Cn1cc(CN2C(=O)c3cccc4c(Br)ccc(c34)C2=O)nn1)OCC | > 250 µM | > 250 µM | > 250 µM | > 250 µM | –
34 | CCOP(=O)(CC(=O)NCn1cc(CN2C(=O)c3cccc4cccc(c34)C2=O)nn1)OCC | > 250 µM | > 250 µM | > 250 µM | > 250 µM | –
35 | CCOP(=O)(CCCCn1cc(CN2C(=O)c3cccc4c(Br)ccc(c34)C2=O)nn1)OCC | > 250 µM | > 250 µM | > 250 µM | > 250 µM | –
36 | CCOP(=O)(CCCn1cc(CN2C(=O)c3cccc4c(Br)ccc(c34)C2=O)nn1)OCC | > 250 µM | > 250 µM | > 250 µM | > 250 µM | –
37 | CCOP(=O)(CCOCn1cc(CN2C(=O)c3cccc4c(Br)ccc(c34)C2=O)nn1)OCC | > 250 µM | > 250 µM | > 250 µM | > 250 µM | –
